14 compounds from article PMC11729640, “Synthesis and evaluation of 6-arylaminobenzamides as positron emission tomography imaging ligands for the sphingosine-1-phosphate-5 receptor” (RSC Medicinal Chemistry, 2025) can be followed below.

The target in one data set is T1, S1P5 (Homo sapiens, UniProt Q9H228).
T1 construct: purchased Eurofins
In words: [35S]GTPγS binding assay, agonist activity at S1P5. The format is biochemical. The note with it: for EC50: n = 3, errors in parentheses derived from 95% confidence intervals, nine concentrations 100 fM to 10 μM; for Efficacy (%): relative efficacy versus S1P against S1P5, single high concentration, single 96-well plate. On the procedure:
The membrane preparation was diluted to […] with assay buffer and mixed 1 : 1 (v/v) with a 0.4 mg mL^-1 solution of saponin in assay buffer. […] MerckTM Multiscreen® HTS 96 well filter plates were pre-wet with 70% aqueous EtOH (50 μL per well) for 30 seconds and then washed twice with assay buffer (200 μL per well). […]

Another data set addresses T2, S1P3 (Homo sapiens, UniProt Q99500).
T2 construct: purchased Eurofins
As to the kind of experiment: [35S]GTPγS binding assay, agonist activity at S1P3. The conditions noted are these: n = 3, errors in parentheses derived from 95% confidence intervals. The format is biochemical. On the procedure:
(§1) A GTPγS assay was then conducted to evaluate receptor agonist activity of each compound at nine concentrations from 100 fM to 10 μM (n = 3).[24,25] Initially, all compounds were tested for agonist activity with S1P5 and relative efficacy versus S1P (Table 1).[26] […] Previous work by the Novartis group described the importance of hydrogen bonding between the carboxamide and 2-substituent, to maintain an in-plane conformation of the amide that was critical for agonist activity against S1P receptors.[16] […] This was more pronounced for compounds with both a bulky alkoxy group and a 3-substituent, with 6-arylaminobenzamide 7h found to have the weakest activity. […] Based on the binding studies and the physicochemical results, 6-arylaminobenzamide 7g, named as TEFM78 was chosen as the lead compound.
(§2) The assay buffer was prepared from HEPES (20 mM), NaCl (100 mM), MgCl2 (10 mM) and fatty acid-free BSA (0.1%) at pH 7.4. ChemiScreen™ S1P1–3,5 lysophospholipid receptor membrane preparations were obtained from Eurofins. The membrane preparation was diluted to […] with assay buffer and mixed 1 : 1 (v/v) with a 0.4 mg mL^−1 solution of saponin in assay buffer. Nine concentrations of the compounds to be tested were prepared (10 μM, 1 μM, 100 nM, 10 nM, 1 nM, 100 pM, 10 pM, 1 pM, 100 fM). Merck™ Multiscreen® HTS 96 well filter plates were pre-wet with 70% aqueous EtOH (50 μL per well) for 30 seconds and then washed twice with assay buffer (200 μL per well). To each well was added membrane preparation (25 μL), GDP in assay buffer (25 μL, 2 μM), [^35S]GTPγS in assay buffer (25 μL, 1.2 nM) and test compound (25 μL). For total binding, S1P solution in assay buffer (25 μL, 10 μM) was added and for basal, assay buffer (25 μL) was added. The assay plate was incubated at 30 °C for 0.5 h before the addition of cold assay buffer (100 μL per well) to stop the reaction. The plate was filtered using a Millipore vacuum manifold, with a pressure between 600–800 mbar and then dried at 50 °C for 1–2 h. Betaplate Scint scintillation cocktail (30 μL per well) was added and the disintegrations per minute were determined using a Wallac 1450 Microbeta Trilux liquid scintillation and luminescence counter. EC50 values were derived from non-linear regression analysis using GraphPad Prism Version 6 (GraphPad Software Inc).
For orientation: GTPγS resists hydrolysis and so accumulates on activated G proteins.

For the next data set, the target named is T3, S1P1 (Homo sapiens, UniProt P21453).
T3 construct: purchased Eurofins
As to the kind of experiment: [35S]GTPγS binding assay, agonist activity at S1P1. The format is biochemical. The conditions noted are these: n = 3, errors in parentheses derived from 95% confidence intervals. On the procedure:
as §1, §2

For a further data set, the target named is T4, S1P2 (Homo sapiens, UniProt O95136).
T4 construct: purchased Eurofins
As to the kind of experiment: [35S]GTPγS binding assay, agonist activity at S1P2. The note with it: n = 3, errors in parentheses derived from 95% confidence intervals. The format is biochemical. On the procedure: as §1, §2

The target in data set [1] is human serum albumin (HSA) (Homo sapiens, UniProt P02768). As to the kind of experiment: Plasma protein binding by human serum albumin (HSA) coated column. The format is in vitro ADME. The note with it: read-out: %PPB (percentage of plasma protein binding). On the procedure: The physicochemical properties of both sets of compounds was initially performed to assess their potential as brain imaging agents. The calculated partition coefficient (log P), the permeability (Pm), the membrane partition coefficient (Km) and the percentage of plasma protein binding (%PPB) were determined for each compound using established methods (see ESI, ^† Table S1).[22,23] […] The permeability and membrane partition coefficient for the majority of compounds were well within the ideal limits for these parameters (Pm < 0.5; Km < 250), which are based on known CNS imaging agents.[23]
1. Physiochemical Propert ies of 6-arylaminobenz amides 7a–7h and 8a–8e.1
Compound log Pa Pmb Kmb %PPBc
aCalcul ated using Ch emDraw. bDeterm ined using i mmobil ised art ific ial membr ane (IAM) column .
cDetermin ed using human seru m albu min (HSA) coa ted colu mn.

T3 sequence (P21453 whole entry): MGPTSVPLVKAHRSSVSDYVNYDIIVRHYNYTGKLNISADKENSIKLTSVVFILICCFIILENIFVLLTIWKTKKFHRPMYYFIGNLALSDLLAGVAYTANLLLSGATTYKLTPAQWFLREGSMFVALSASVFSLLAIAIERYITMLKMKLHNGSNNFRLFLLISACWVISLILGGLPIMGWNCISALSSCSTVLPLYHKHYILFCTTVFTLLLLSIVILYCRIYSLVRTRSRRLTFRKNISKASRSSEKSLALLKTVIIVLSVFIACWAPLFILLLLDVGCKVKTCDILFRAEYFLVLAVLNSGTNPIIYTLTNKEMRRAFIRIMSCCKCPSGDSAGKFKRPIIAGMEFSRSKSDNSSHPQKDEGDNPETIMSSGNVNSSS
T2 sequence (Q99500 whole entry): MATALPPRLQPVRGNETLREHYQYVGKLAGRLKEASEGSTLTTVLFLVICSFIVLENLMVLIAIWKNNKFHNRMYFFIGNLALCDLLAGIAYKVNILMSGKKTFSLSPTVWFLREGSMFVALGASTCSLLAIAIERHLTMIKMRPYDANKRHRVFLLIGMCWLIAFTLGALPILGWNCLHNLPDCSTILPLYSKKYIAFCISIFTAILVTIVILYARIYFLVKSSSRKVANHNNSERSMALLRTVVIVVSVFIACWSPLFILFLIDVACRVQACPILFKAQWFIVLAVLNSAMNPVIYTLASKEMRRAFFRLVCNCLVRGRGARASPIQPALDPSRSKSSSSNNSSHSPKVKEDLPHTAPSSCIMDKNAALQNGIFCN
Sequence of human serum albumin (HSA) (P02768 25-609): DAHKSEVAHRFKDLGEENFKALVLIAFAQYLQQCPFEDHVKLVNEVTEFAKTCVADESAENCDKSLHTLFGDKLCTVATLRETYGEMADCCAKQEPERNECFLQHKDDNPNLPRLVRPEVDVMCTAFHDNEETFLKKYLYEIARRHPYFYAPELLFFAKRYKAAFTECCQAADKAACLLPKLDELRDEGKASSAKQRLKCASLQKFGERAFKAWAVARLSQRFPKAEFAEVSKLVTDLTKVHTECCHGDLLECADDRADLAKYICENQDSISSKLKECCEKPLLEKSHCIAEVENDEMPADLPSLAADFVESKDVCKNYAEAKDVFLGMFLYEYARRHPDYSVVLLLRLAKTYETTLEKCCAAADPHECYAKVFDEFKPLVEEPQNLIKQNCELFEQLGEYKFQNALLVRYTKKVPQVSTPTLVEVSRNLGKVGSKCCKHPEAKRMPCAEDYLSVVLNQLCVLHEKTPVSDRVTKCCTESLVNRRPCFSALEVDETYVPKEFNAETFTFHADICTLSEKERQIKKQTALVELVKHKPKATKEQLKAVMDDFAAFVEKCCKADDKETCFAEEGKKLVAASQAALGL
T4 sequence (O95136 whole entry): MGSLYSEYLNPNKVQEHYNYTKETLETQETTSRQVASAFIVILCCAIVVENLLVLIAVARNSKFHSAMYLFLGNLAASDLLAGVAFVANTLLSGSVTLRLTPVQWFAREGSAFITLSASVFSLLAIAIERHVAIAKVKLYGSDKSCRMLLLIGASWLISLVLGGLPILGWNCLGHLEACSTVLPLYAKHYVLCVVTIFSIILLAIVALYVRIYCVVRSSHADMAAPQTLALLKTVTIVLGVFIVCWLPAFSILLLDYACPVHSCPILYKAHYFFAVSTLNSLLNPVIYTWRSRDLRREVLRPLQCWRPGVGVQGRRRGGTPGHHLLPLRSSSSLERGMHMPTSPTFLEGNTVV
T1 sequence (Q9H228 whole entry): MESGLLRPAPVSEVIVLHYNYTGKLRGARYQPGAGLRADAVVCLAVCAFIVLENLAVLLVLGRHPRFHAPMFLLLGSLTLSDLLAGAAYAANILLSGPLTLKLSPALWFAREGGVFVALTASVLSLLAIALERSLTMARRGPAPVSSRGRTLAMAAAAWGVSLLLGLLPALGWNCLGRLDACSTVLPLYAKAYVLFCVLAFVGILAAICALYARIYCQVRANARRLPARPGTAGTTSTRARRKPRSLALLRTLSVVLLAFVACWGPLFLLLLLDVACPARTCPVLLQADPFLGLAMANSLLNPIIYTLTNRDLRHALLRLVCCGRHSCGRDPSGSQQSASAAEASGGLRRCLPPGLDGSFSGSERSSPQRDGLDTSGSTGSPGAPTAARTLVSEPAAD

One may read the EC50 as the concentration at which the effect is half-maximal. As for `Cc1cc(F)cc(C)c1Nc1ccc(C)c(OCC(C)C)c1C(N)=O` [Compound 7h, 6-[(4′-Fluoro-2′,6′-dimethylphenyl)amino]-2-isobutoxy-3-methylbenzamide], at S1P5, the EC50 was found to be 2240 nM and the “Efficacy (%)” value was determined as 154%.
The matching figures for `Cc1cc(F)cc(C)c1Nc1cccc(OCCC(C)C)c1C(N)=O` [Compound 7e, 6-[(4′-Fluoro-2′,6′-dimethylphenyl)amino]-2-(3′′-methyl-n-butoxy)benzamide]: 49 nM and 102%.
`CCCCCCCCCCCCC/C=C/[C@@H](O)[C@@H](N)COP(=O)(O)O` [S1P (1), sphingosine-1-phosphate]: the “Efficacy (%)” value at S1P5 amounted to 100%. Moreover, the half-maximal effective concentration (EC50) at S1P3 turned out to be 42.6 nM.
Turning to `COc1cccc(Nc2c(C)cc(F)cc2C)c1C(N)=O` [Compound 7b, 6-[(4′-Fluoro-2′,6′-dimethylphenyl)amino]-2-methoxybenzamide], the EC50 at S1P5 is 39.8 nM; at S1P1, greater than 10000 nM; at S1P2, greater than 10000 nM; at S1P3, greater than 10000 nM. Also, the “Efficacy (%)” value on S1P5 is listed as 108%. Also, in data set [1], the fraction unbound amounted to 0.01.
As for `COc1c(-c2ccccc2F)ccc(Nc2c(C)cc(C)cc2C)c1C(N)=O` [Compound 8b, 3-(2′′-Fluorophenyl)-6-(mesitylamino)-2-methoxybenzamide], at S1P5, the EC50 is 954 nM and the “Efficacy (%)” value amounted to 136%.
Regarding `COc1c(C)ccc(Nc2c(C)cc(F)cc2C)c1C(N)=O` [Compound 7g, 6-[(4′-Fluoro-2′,6′-dimethylphenyl)amino]-2-methoxy-3-methylbenzamide], the EC50 on S1P5 was 22.3 nM; on S1P1 it was 104 nM; at S1P2, greater than 10000 nM; on S1P3 it was 2030 nM. For the same compound, the “Efficacy (%)” value on S1P5 amounted to 183%. The fraction unbound in data set [1] came to 0.01.
For the compound `COc1c(-c2ccc(F)cc2)ccc(Nc2c(C)cc(C)cc2C)c1C(N)=O` [Compound 8a, 3-(4′′-Fluorophenyl)-6-(mesitylamino)-2-methoxybenzamide], at S1P5, the EC50 turned out to be 72.3 nM and the “Efficacy (%)” value is reported as 129%.
Take `Cc1cc(F)cc(C)c1Nc1cccc(OCC(C)C)c1C(N)=O` [Compound 7c, 6-[(4′-Fluoro-2′,6′-dimethylphenyl)amino]-2-isobutoxybenzamide]: on S1P5, the EC50 worked out at 180 nM and the “Efficacy (%)” value turned out to be 137%.
On to `Cc1cc(F)cc(C)c1Nc1cccc(OC(C)C)c1C(N)=O` [Compound 7a, 6-[(4′-Fluoro-2′,6′-dimethylphenyl)amino]-2-isopropoxybenzamide], for which, at S1P5, the concentration giving a half-maximal response (EC50) is 419 nM and the “Efficacy (%)” value came out at 105%. In addition, in data set [1], the fraction unbound turned out to be 0.01.
For the compound `COc1ccc(-c2ccc(Nc3c(C)cc(C)cc3C)c(C(N)=O)c2OC)c(F)c1` [Compound 8c, 3-(2′′-Fluoro-4′′-methoxyphenyl)-6-(mesitylamino)-2-methoxybenzamide], the concentration giving a half-maximal response (EC50) on S1P5 was 29.8 nM; at S1P1, 76 nM; at S1P2 it was greater than 10000 nM; on S1P3, greater than 10000 nM. Also, the “Efficacy (%)” value on S1P5 is 120%.
Regarding `COc1c(-c2cccnc2F)ccc(Nc2c(C)cc(C)cc2C)c1C(N)=O` [Compound 8e, 3-(2′′-Fluoropyridin-3′′-yl)-6-(mesitylamino)-2-methoxybenzamide], the 50% effective concentration (EC50) at S1P5 was 23.4 nM; at S1P1 it was 0.336 nM; on S1P2 it was greater than 10000 nM; on S1P3, 172 nM. Also, the “Efficacy (%)” value at S1P5 is 175%. The fraction unbound in data set [1] was 0.01.
In the case of `C=CCOc1cccc(Nc2c(C)cc(F)cc2C)c1C(N)=O` [Compound 7f, 2-(Allyloxy)-6-[(4′-fluoro-2′,6′-dimethylphenyl)amino]benzamide], the EC50 at S1P5 was 6.66 nM; at S1P1 it was 25.6 nM; on S1P2, greater than 10000 nM; at S1P3, 27.6 nM. Moreover, the “Efficacy (%)” value on S1P5 turned out to be 164%.
For the compound `CCCCOc1cccc(Nc2c(C)cc(F)cc2C)c1C(N)=O` [Compound 7d, 2-n-Butoxy-6-[(4′-fluoro-2′,6′-dimethylphenyl)amino]benzamide], on S1P5, the EC50 was 234 nM and the “Efficacy (%)” value worked out at 140%.
The matching figures for `COc1ccc(F)c(-c2ccc(Nc3c(C)cc(C)cc3C)c(C(N)=O)c2OC)c1` [Compound 8d, 3-(2′′-Fluoro-5′′-methoxyphenyl)-6-(mesitylamino)-2-methoxybenzamide]: 612 nM and 142%.
